This is an account of results in article PMC11956012, “Optimization of Cyclophilin B-Targeted Tri-vector Inhibitors for Novel MASH Treatments” (Journal of Medicinal Chemistry, 2025).

≈ marks a conversion by molar mass, not a printed value. Like-named read-outs stand apart in the source and are kept apart here.

On the set-up of data set [1]: method as in PMID 38324483. The following applies: phase III trial; cited from earlier work.
The test system of another data set is iPSC-derived hepatocytes. Briefly: In vitro hepatic steatosis (MASH) assay. In kind it is cell-based. The following applies: 48 h treatment, 95% CI [lower limit, upper limit], read-out: EC50 steatosis.
In a further data set the target is Cyp A (Homo sapiens, UniProt P62937). Description: SPR kinetic titration, Cyp A. For orientation: In SPR one partner is held on a chip, and binding of the other changes the refractive index at the surface.
Cyp A, sequence (P62937 whole entry): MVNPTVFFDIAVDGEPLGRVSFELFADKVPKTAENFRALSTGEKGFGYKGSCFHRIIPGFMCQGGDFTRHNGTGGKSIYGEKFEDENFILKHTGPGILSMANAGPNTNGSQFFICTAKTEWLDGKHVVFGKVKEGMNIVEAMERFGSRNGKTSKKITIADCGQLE
Data set [2] is described as follows: Intrinsic clearance, human hepatocytes. In kind it is in vitro ADME. The following applies: cryopreserved hepatocytes.
A short description of data set [3]: Intrinsic clearance, rat liver microsomes. In kind it is in vitro ADME. In general terms: Liver microsomes are a subcellular fraction often used to study metabolism.
Data set [4] can be described thus: Intrinsic clearance, human liver microsomes. The class given is in vitro ADME.
A short description of a further data set: in vitro. To be noted: human, Caco-2.
In data set [5] the test system is permeabilised human hepatocyte (HepG2) cells. Briefly: Calcium Retention Capacity assay. The class given is cell-based.
Experimental: Calcium Retention Capacity Assay
The compounds were prepared as a 10 mM stock solution in 100% DMSO. Subsequent dilutions were made in 100% DMSO and then in assay buffer to 10-fold the final concentration.
HepG2 cells were permeabilized with 100 µM digitonin for 10 min in ice cold buffer containing 1mM EGTA. Following two wash steps to remove the digitonin, the cells were plated into 96 well black and clear plates at 106 cell per well in a 180 µL assay buffer containing 0.5 µM Calcium Green 5N. Compounds dilution were prepared in DMSO to 1000 fold the final concentration, diluted 1:100 in assay buffer and added to the assay as 20 µL per well. The assay buffer contained 5 mM glutamate and 2.5 mM malate. The cell plate was immediately run on the FLIPR Tetratm which added 5 µL of 200 µM (5 µM) calcium chloride every 5 minutes whilst reading the plate every 3 seconds. The area under the curve (AUC) of the raw trace was calculated at each concentration. AUC values were plotted against concentration and EC50 values calculated. Experiments were repeated three times and the EC50 value was determined from a curve fitted to the averaged replicates.
The target in data set [6] is T1, Cyp B (Homo sapiens, UniProt P23284). Briefly: biochemical.
T1 sequence (P23284 32-216 limits assumed): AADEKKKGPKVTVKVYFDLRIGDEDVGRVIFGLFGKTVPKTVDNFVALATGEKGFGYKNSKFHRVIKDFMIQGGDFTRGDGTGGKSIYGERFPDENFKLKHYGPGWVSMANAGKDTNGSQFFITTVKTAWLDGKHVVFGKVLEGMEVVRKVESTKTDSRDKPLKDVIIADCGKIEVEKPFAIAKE
Experimental: (§1) The cyclophilin binding properties of the compounds were assessed by Surface Plasmon Resonance (SPR) against Cyp A, B and D isoforms (Table 1, representative sensorgrams are shown in Figure 3A).[35]
Surface Plasmon Resonance (SPR)
(§2) SPR measurements were performed on a Biacore T200 instrument (Cytiva). Ni2+ -
(§3) nitrilotriacetic acid (NTA) sensor chips, 1-ethyl-3-(3-diaminopropyl) carbodiimide
(§4) hydrochloride (EDC) and N hydroxy succinimide (NHS) were purchased from Cytiva.
(§5) Immobilization and covalent stabilization of His-Cyps Pure His-cyclophilins on the NTA
(§6) sensor chip was performed essentially as described. [Wear et al., 2017, FEBS OpenBio], using
(§7) 200 nM concentrations of each protein, in Running Buffer (PBS, pH7.4; 0.05 % surfactant P20,
(§8) 2% v/v ethanol; 50 µM EDTA), at 30 µl min-1 with 60 second contact times on the activated
(§9) NTA surfaces. This gave signals of 1,921 RU for His-CypA, 1932 RU for His-CypB and 1,397
(§10) RU for His-CypD. Specific surface protein activity was assayed by passing saturating amounts
(§11) activity were obtained for His-CypA, -B and –D, respectively.
Kinetic titration experiments
(§12) Single cycle kinetic titration binding experiments were performed in triplicate at 25 °C. 3-fold
(§13) injected over the sensor surface, at 100 µl min-1 with a 90 s contact time and a 90 s dissociation
(§14) time. The sensor surface was regenerated between experiments by dissociating any formed
(§15) complex in running buffer for at least 1,200 seconds. The apparent on-rate (k+) and off-rate (k-
(§16) ) constants and the equilibrium dissociation constant (Kd) were calculated from reference
Data set [7] is described as follows: physchem.
Experimental: (§17) These experiments were subcontracted to Eurofins.
(§18) Kinetic solubility measurements were carried out using a shake-flask technique. Compounds
(§19) were incubated for 24 hours at room temperature. Aqueous solubility (μM) was determined by
(§20) comparing the peak area of the principal peak in a calibration standard (200 μM) containing
(§21) organic solvent (methanol/water, 60/40, v/v) with the peak area of the corresponding peak in a
(§22) buffer sample. In addition, chromatographic purity (%) was defined as the peak area of the
(§23) principal peak relative to the total integrated peak area in the HPLC chromatogram of the
(§24) calibration standard. A chromatogram of the calibration standard of each test compound, along
(§25) with a UV/VIS spectrum with labeled absorbance maxima, was generated.
(§26) These were measured using a shake-flask technique. Compounds were incubated for 60 min at
(§27) room temperature. The total amount of compound was determined as the peak area of the
(§28) principal peak in a calibration standard (100 μM) containing organic solvent (methanol/water,
(§29) 60/40, v/v). The amount of compound in buffer was determined as the combined, volume
(§30) corrected, and weighted areas of the corresponding peaks in the aqueous phases of three
(§31) organic-aqueous samples of different composition. An automated weighting system was used
(§32) to ensure the preferred use of raw data from those samples with well quantifiable peak signals.
(§33) The amount of compound in organic was calculated by subtraction. Subsequently, Log D was
(§34) calculated as the Log10 of the amount of compound in the organic phase divided by the amount
of compound in the aqueous phase.
Data set [8] has as its target T1, Cyp B. The following applies: from SPR Kd.
Experimental: as §1
Surface Plasmon Resonance (SPR)
as §2, §3, §4, §5, §6, §7, §8, §9, §10, §11
Kinetic titration experiments
as §12, §13, §14, §15, §16
For data set [9], the target named is T2, Cyp D (Homo sapiens, UniProt P30405). Description: SPR kinetic titration, Cyp D.
T2 sequence (P30405 42-207): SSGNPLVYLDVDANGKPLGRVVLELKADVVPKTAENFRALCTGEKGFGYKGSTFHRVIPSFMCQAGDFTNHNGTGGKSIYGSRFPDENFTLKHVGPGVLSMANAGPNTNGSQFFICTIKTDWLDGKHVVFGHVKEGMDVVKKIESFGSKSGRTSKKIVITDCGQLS
Experimental: as §1
Surface Plasmon Resonance (SPR)
as §2, §3, §4, §5, §6, §7, §8, §9, §10, §11
Kinetic titration experiments
as §12, §13, §14, §15, §16
Data set [10] can be described thus: physchem. This is another data set of the same source.
Experimental: as §17, §18, §19, §20, §21, §22, §23, §24, §25, §26, §27, §28, §29, §30, §31, §32, §33, §34
of compound in the aqueous phase.
Data set [11] can be described thus: Intrinsic clearance, rat hepatocytes. In kind it is in vitro ADME. To be noted: cryopreserved hepatocytes.
Data set [12] addresses T2, Cyp D.
Experimental: as §1
Surface Plasmon Resonance (SPR)
as §2, §3, §4, §5, §6, §7, §8, §9, §10, §11
Kinetic titration experiments
as §12, §13, §14, §15, §16

Experimental for Cyp A: as §1
Surface Plasmon Resonance (SPR)
as §2, §3, §4, §5, §6, §7, §8, §9, §10, §11
Kinetic titration experiments
as §12, §13, §14, §15, §16

For the compound `CC(C)c1cc(Oc2c(Cl)cc(-n3nc(C#N)c(=O)[nH]c3=O)cc2Cl)n[nH]c1=O` [Resmetirom, reference compound], the “patients with improved liver pathology” value in data set [1] is given as 25–30%. Also, the EC50 in the data set on iPSC-derived hepatocytes (listed as Res) was 261 nM; in the data set on iPSC-derived hepatocytes (Hepatocyte, 48 h) it was ~300 nM.
On to `CSc1ccccc1[C@H]1CCCN1C(=O)CNC(=O)N(Cc1ccc2c(c1)[C@H]1C[C@@H](N2)[C@H](O)CO1)Cc1nnn(C)n1` [Compound 3, 1-[[(1S,9R,10S)-10-Hydroxy-12-oxa-8-azatricyclo[7.3.1.0,^27]trideca-2,4,6-trien-4-yl]methyl]-3-[2-[(2R)-2-(2-methylsulfanylphenyl)pyrrolidin-1-yl]-2-oxo-ethyl]-1-[(2-methyltetrazol-5-yl)methyl]urea], for which the Kd was determined as 6 ± 2 nM at Cyp A; 2 ± 1 nM on Cyp B [6] (Kd Cyp B, SPR-derived dissociation constant, 25 °C); 8 ± 3 nM at Cyp D [9]. For the same compound, the half-life was > 120 min in data set [2], 51 min in data set [3], 41 min in [4] and > 120 min in [11]. For the same compound, the hepatocyte CLint is < 8 µL/min/1e6 cells in [2] (Table 3, read-out: Human Hepatocytes CL) and < 8 µL/min/1e6 cells in data set [11] (Table 3, read-out: Rat Hepatocytes CL). The microsomal CLint in data set [3] (Table 3, read-out: Rat Liver microsomes CL) came out at 137 µL/min/mg; in data set [4] (Table 3, read-out: Human Liver microsomes CL), 169 µL/min/mg. This compound also displayed a Papp A→B in “in vitro” of 0.03 ×10⁻⁶ cm/s. Further, the efflux ratio in “in vitro” is 37. Further, the EC50 in data set [5] (Homo sapiens, HepG2, read-out: EC50 CRC assay) amounted to 244 nM. In addition, in data set [5] (from EC50 values), the “greater efficacy over CsA in the calcium retention assay” value was 2 fold. In the data set “physchem [7]”, this compound came in with a logD of 0.66. In addition, on Cyp B [8], the “selectivity for Cyp B over Cyp A” value amounted to 3 fold. Also, the results for the solubility in the data set “physchem [10]” and in the data set “physchem [10]” (pH 7.4) were 54 µM (≈ 32 µg/mL) and > 200 µM, respectively.
As for `CSc1ccccc1[C@H]1CCCN1C(=O)CN1C(=O)CN(Cc2cc(F)c(N)c(F)c2)C1=O` [Compound 15, 1-[(4-Amino-3,5-difluoro-phenyl)methyl]-3-[2-oxo-2-[(2R)-2-(2-methylsulfanylphenyl)pyrrolidine-1-yl]ethyl]imidazolidine-2,4-dione], the Kd on Cyp A came to 6700 ± 2600 nM; at Cyp B [6], 3800 ± 1300 nM; on Cyp D [12] it was 6300 ± 1600 nM.

The term EC50 denotes the concentration at which the effect is half-maximal. A word on the Kd: it is a measure of binding affinity in units of concentration. A word on the half-life: it is the time needed for the level to fall by half in the phase considered. By Papp A→B is commonly meant how fast a substance crosses the layer from the apical side. Read a low Papp A→B as poor permeation. As a reminder, the efflux ratio is the permeability from basolateral to apical divided by that in the opposite direction, in the common usage. A word on the logD: it is lipophilicity at a set pH, counting ionised and neutral species. What is called solubility is how much of the substance goes into solution per volume. A high value points to a readily soluble substance.
